This is an account of results in patent US20130012546A1 (priority 2009, published 2013).

For series [1], the system named is Phytophthora infestans. In kind it is in vivo. The settings on record: tomato plants, preventive spray, 100 ppm of active ingredient, evaluated 7 days after inoculation.
Series [2] relates to Plasmopara viticola. The series is described as follows: Plasmopara test (grapevines) / preventive. Format: in vivo. The settings on record: preventive spray, 10 ppm of active ingredient, evaluated 6 days after inoculation. As for the experimental part:
Plasmopara Test (Grapevines)/Preventive
Solvent: 24.5 parts by weight of acetone • 24.5 parts by weight of dimethylacetamide Emulsifier: 1 part by weight of alkylaryl polyglycol ether
To produce a suitable preparation of active compound, 1 part by weight of active compound is mixed with the stated amounts of solvent and emulsifier, and the concentrate is diluted with water to the desired concentration.
To test for preventive activity, young plants are sprayed with the preparation of active compound at the stated rate of application. After the spray coating has dried on, the plants are inoculated with an aqueous spore suspension of Plasmopara viticola and then remain for 1 day in an incubation cabinet at approximately 20° C. and a relative atmospheric humidity of 100%. The plant is subsequently placed for 4 days in a greenhouse at approximately 21° C. and a relative atmospheric humidity of approximately 90%. The plants are then misted and placed for 1 day in an incubation cabinet.
The test is evaluated 6 days after the inoculation. 0% means an efficacy which corresponds to that of the untreated control, while an efficacy of 100% means that no disease is observed.

Series [3] is described as follows: logP(HCOOH) by HPLC. The settings on record: HPLC on reversed phase columns, pH 2.7, 0.1% formic acid in water / acetonitrile, linear gradient 10% to 95% acetonitrile; EEC directive 79/831 Annex V.A8. Format: physicochemical.
Series [4] has as its system Pythium ultimum. In words: Pythium test (cotton) / seed treatment. Format: in vivo. The settings on record: 10 g/dt seed of active ingredient, emerged seedlings counted after 7 days in greenhouse. As for the experimental part:
Pythium Test (Cotton)/Seed Treatment
The test is performed under greenhouse conditions.
Cotton seeds, treated with the active compound or compound combinations, solved in N-methyl-2-pyrrolidon and diluted with water to the desired dosages, were sown in 6*6 cm pots containing 4 cm of a 1:1 mix of steamed field soil and sand.
Perlite was incubated with mycelium fragments of Pythium ultimum. 1 ml of infected perlite was scattered between the treated cotton seeds. Seeds were then covered by light expanded clay aggregate. Pots were incubated in the greenhouse 7 days at 20° C. and 80% relative humidity.
Assessment consisted of counting of emerged seedlings. 0% means an efficacy which corresponds to that of the control, while an efficacy of 100% means that all seedlings have emerged.

Take `Cc1nnnn1C(=NOCc1csc(NC(=O)COC2CCCCCC2)n1)c1ccccc1` [Example 89]: the Efficacy % was found to be 100% in series [1] and 73% in series [2]. The same molecule returned a log p in series [3] of 4.3.
The corresponding values for `C=CCCOC(C)C(=O)Nc1nc(CO/N=C(/c2ccccc2)c2nnnn2C)cs1` (stereo not drawn) [Example 46] are 98%, 79% and 3.48.
The corresponding values for `Cn1nnnc1C(=NOCc1csc(NC(=O)OCC2CC2)n1)c1ccccc1` [Example 63] are 100%, 93% and 3.23.
Regarding `CC(OC1CCCCC1)C(=O)Nc1nc(CON=C(c2ccccc2)c2nnnn2C)cs1` (stereo not drawn) [Example 92], the Efficacy % worked out at 100% in series [1] and 93% in series [2]. Also, in series [3], the log p turned out to be 4.14.
The corresponding values for `CC(CC1CC1)OC(=O)Nc1nc(CON=C(c2ccccc2)c2nnnn2C)cs1` (stereo not drawn) [Example 64] are 95%, 94% and 3.83.
The corresponding values for `C=CCOC(C)C(=O)Nc1cccc(CO/N=C(/c2ccccc2)c2nnnn2C)n1` (stereo not drawn) [Example 42] are 98%, 70% and 3.35.
Take `Cn1nnnc1C(=NOCc1csc(NC(=O)COC2CCCCC2)n1)c1ccccc1` [Example 12]: the Efficacy % in series [1] was 92%; in series [2] it was 94%; in series [4] it was 100%. This molecule showed a log p in series [3] of 3.85.
Turning to `Cc1nnnn1C(=NOCc1cccc(NC(=O)OCC2CCCCC2)n1)c1ccccc1` [Example 16], the values for the Efficacy % in series [1] and in series [2] were 95% and 85%, respectively. The molecule further yielded a log p in series [3] of 4.8.
Take `C=C=CCCC(=O)Nc1cccc(CON=C(c2ccccc2)c2nnnn2C)n1` [Example 101]: the values for the Efficacy % in series [1], in series [2] and in series [4] were 93%, 81% and 100%, respectively. In series [3], this molecule showed a log p of 3.21.
Take `C=CCCOCC(=O)Nc1nc(CO/N=C(/c2ccccc2)c2nnnn2C)cs1` [Example 47]: the Efficacy % in series [1] worked out at 95%; in series [2] it was 82%. The log p in series [3] was 3.19.
With `C=CCCCOCC(=O)Nc1nc(CON=C(c2ccccc2)c2nnnn2C)cs1` [Example 6], the Efficacy % was 95% in series [1] and 90% in series [2]. In addition, the log p in series [3] amounted to 3.52.
On the same counts, the results for `Cc1nnnn1C(=NOCc1csc(NC(=O)C(C)OC2CCCC2)n1)c1ccccc1` (stereo not drawn) [Example 93] are 100%, 91% and 3.87.
On the same counts, the results for `C=C=CCCC(=O)Nc1nc(CON=C(c2ccccc2)c2nnnn2C)cs1` [Example 102] are 80%, 83% and 3.11.
As to `CON=C(C(=O)Nc1nc(CON=C(c2ccccc2)c2nnnn2C)cs1)c1ccccc1Cl` [Example 10], the results for the Efficacy % in series [1], in series [2] and in series [4] were 95%, 90% and 88%, respectively. For the same molecule, the log p in series [3] was 3.87.
Turning to `C=CCOC(C)C(=O)Nc1nc(CO/N=C(/c2ccccc2)n2nnnc2C)cs1` (stereo not drawn) [Example 45], the Efficacy % in series [1] is on record as 95%; in series [2], 84%. Also, in series [3], the log p is on record as 3.19.
On the same counts, the results for `Cc1nnnn1C(=NOCc1cccc(NC(=O)OCCCC2CC2)n1)c1ccccc1` [Example 18] are 100%, 72% and 4.29.
On the same counts, the results for `Cc1nnnn1C(=NOCc1csc(NC(=O)COC2CCCCC2)n1)c1ccccc1` [Example 78] are 100%, 79% and 3.89.
Consider `C=CCOC(C)C(=O)Nc1nc(CO/N=C(/c2ccccc2)c2nnnn2C)cs1` (stereo not drawn) [Example 48], for which the Efficacy % in series [1] amounted to 100%; in series [2], 74%. Also, the log p in series [3] was 3.13.
In the case of `Cn1nnnc1C(=NOCc1csc(NC(=O)COC2CCCCCC2)n1)c1ccccc1` [Example 91], the values for the Efficacy % in series [1], in series [2] and in series [4] were 100%, 94% and 96%, respectively. This molecule displayed a log p in series [3] of 4.23.
Consider `C#CCOC(C)C(=O)Nc1nc(CO/N=C(/c2ccccc2)n2nnnc2C)cs1` (stereo not drawn) [Example 53], for which the Efficacy % in series [1] was 95%; in series [2] it was 95%; in series [4] it was 100%. In series [3], the log p turned out to be 2.92.
Take `Cc1nnnn1C(=NOCc1cccc(NC(=O)OC(C)CC2CC2)n1)c1ccccc1` (stereo not drawn) [Example 14]: the Efficacy % was 95% in series [1] and 94% in series [2]. In series [3], this molecule displayed a log p of 4.24.
The corresponding values for `Cn1nnnc1C(=NOCc1csc(NC(=O)COC2CCCC2)n1)c1ccccc1` [Example 84] are 98%, 90% and 3.53.
On the same counts, the results for `Cc1nnnn1C(=NOCc1csc(NC(=O)COC2CCCC2)n1)c1ccccc1` [Example 86] are 95%, 81% and 3.6.
Turning to `Cc1nnnn1C(=NOCc1cccc(NC(=O)OCC2CCCC2)n1)c1ccccc1` [Example 20], the Efficacy % came out at 95% in series [1] and 97% in series [2]. The molecule also came in with a log p in series [3] of 4.41.
For `Cn1nnnc1C(=NOCc1csc(NC(=O)OCCC2CCCCC2)n1)c1ccccc1` [Example 62], the Efficacy % in series [1] came to 100%; in series [2] it was 88%. This molecule also returned a log p in series [3] of 4.66.
Regarding `CC(=NOCC(=O)Nc1nc(CON=C(c2ccccc2)n2nnnc2C)cs1)c1ccccc1` [Example 39], the Efficacy % in series [1] was found to be 98%; in series [4], 85%. In series [3], this molecule yielded a log p of 3.79.
Turning to `C#CCOC(C)C(=O)Nc1nc(CO/N=C(/c2ccccc2)c2nnnn2C)cs1` (stereo not drawn) [Example 51], the Efficacy % in series [1] is 95%; in series [2], 96%; in series [4] it was 100%. The same molecule displayed a log p in series [3] of 2.82.
